Results as given in PMC5908784, “Extracellular loops 2 and 3 of the calcitonin receptor selectively modify agonist binding and efficacy” (Biochemical Pharmacology, 2018).
Positions count from the first letter of the chain named. Where a SMILES comes first, the peptide text is derived from it. Bridges are numbered along the chain shown (N, C = ends).

Tests used:
hCTR P363A = target: T1, hCTR P363A (Homo sapiens, UniProt P30988, P363A); assay: IP1 accumulation; type: cell-based; details: mean ± S.E.M.; for Emax: IP1 maximal response, SEM
T1 construct: expressed in transfected cells
T1 sequence (P30988 25-474 P363A): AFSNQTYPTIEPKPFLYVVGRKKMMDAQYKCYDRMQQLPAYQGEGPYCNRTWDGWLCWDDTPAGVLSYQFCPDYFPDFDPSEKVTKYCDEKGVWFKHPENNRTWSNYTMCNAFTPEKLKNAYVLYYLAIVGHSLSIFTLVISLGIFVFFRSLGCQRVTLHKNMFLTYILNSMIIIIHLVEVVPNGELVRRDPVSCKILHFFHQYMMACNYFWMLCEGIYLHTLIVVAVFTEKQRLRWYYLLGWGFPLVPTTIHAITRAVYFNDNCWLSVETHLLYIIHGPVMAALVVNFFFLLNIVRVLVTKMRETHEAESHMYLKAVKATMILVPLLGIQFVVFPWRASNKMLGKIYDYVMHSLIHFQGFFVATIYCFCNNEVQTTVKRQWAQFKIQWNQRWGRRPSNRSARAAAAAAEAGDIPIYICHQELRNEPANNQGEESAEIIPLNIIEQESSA
Procedure, shortened: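 Cells bearing the mutant calcitonin receptor were plated overnight, then stimulated with increasing ligand concentrations for 60 min in the presence of LiCl. Endogenous IP1 was read by HTRF after lysis.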

hCTR D287A = target: T2, hCTR D287A (Homo sapiens, UniProt P30988, D287A); assay: IP1 accumulation; type: cell-based; details: mean ± S.E.M.
T2 construct: c-Myc (N); expressed in transfected cells
T2 sequence (P30988 25-474 D287A): T1 sequence (P30988 25-474 P363A) with D263A, A339P
Experimental: Cells (2.5 × 10^4 cells/well) were plated into 96 well trays and cultured overnight. Cells were stimulated with increasing concentration of ligands for 60 min in the presence of LiCl. Samples were lysed and endogenous IP1 was measured using an IP-One HTRF® assay kit (CisBio) as specified by the manufacturer. Data were normalized to the maximal response elicited by 100 μM of ATP.
IC50 and Bmax values were estimated from competitive inhibition of ^125I-sCT(8-32) binding using a 3-parameter logistic equation (log(inhibitor versus response)) in Prism (v7; Graphpad). Data were corrected for radioligand occupancy using the Cheng-Prusoff equation in Prism; as such data are reported as pKi. Emax and EC50 were estimated from concentration-response curves using with a 3-parameter logistic equation in Prism (v7). These values are a composite of functional affinity, efficacy and stimulus response coupling. […] Derived τ values were normalized to experimentally determined levels of cell surface expression to provide a measure of efficacy (τc) that is independent of affinity and altered cell surface receptor expression. pKi, pKA and log τc values for mutant receptors were statistically compared to those of the WT receptor using a one-way analysis of variance (ANOVA) and Dunnett’s post-test. […]

hCTR T280A = target: T3, hCTR T280A (Homo sapiens, UniProt P30988, T280A); assay: Heterologous whole cell competition binding; details: heterologous competition of 125I-sCT(8-32), whole cells, mean ± S.E.M., SEM
T3 construct: expressed in transfected cells
T3 sequence (P30988 25-474 T280A): T1 sequence (P30988 25-474 P363A) with T256A, A339P
Experimental: (§1) Following overnight incubation non-bound ligand was removed and radioactivity was determined using a gamma counter.
(§2) Data were corrected for radioligand occupancy using the Cheng-Prusoff equation in Prism; as such data are reported as pKi. Emax and EC50 were estimated from concentration-response curves using with a 3-parameter logistic equation in Prism (v7). These values are a composite of functional affinity, efficacy and stimulus response coupling. […] Significance was accepted at P < 0.05.

hCTR V293A = target: T4, hCTR V293A (Homo sapiens, UniProt P30988, V293A); assay: Heterologous whole cell competition binding; details: heterologous competition of 125I-sCT(8-32), whole cells, mean ± S.E.M., SEM
T4 construct: c-Myc (N); expressed in transfected cells
T4 sequence (P30988 25-474 V293A): T1 sequence (P30988 25-474 P363A) with V269A, A339P
Experimental: as §1, §2

[1] = IP1, CV1-FlpIn cells, 60 min, LiCl

| SMILES | Emax (hCTR P363A) | EC50 (hCTR P363A; [1]) | EC50 (hCTR D287A; [1]) | Emax (hCTR D287A; IP1 maximal response, SEM) | Ki (hCTR T280A) | Ki (hCTR V293A) |
| --- | --- | --- | --- | --- | --- | --- |
| CC(C)C[C@H](NC(=O)[C@H](CCCCN)NC(=O)CNC(=O)[C@H](CC(C)C)NC(=O)[C@@H](NC(=O)[C@@H]1CSSC[C@H](N)C(=O)N[C@@H](CO)C(=O)N[C@@H](CC(N)=O)C(=O)N[C@@H](CC(C)C)C(=O)N[C@@H](CO)C(=O)N[C@@H]([C@@H](C)O)C(=O)N1)C(C)C)C(=O)N[C@@H](CO)C(=O)N[C@@H](CCC(N)=O)C(=O)N[C@@H](CCC(=O)O)C(=O)N[C@@H](CC(C)C)C(=O)N[C@@H](Cc1c[nH]cn1)C(=O)N[C@@H](CCCCN)C(=O)N[C@@H](CC(C)C)C(=O)N[C@@H](CCC(N)=O)C(=O)N[C@H](C(=O)N[C@@H](Cc1ccc(O)cc1)C(=O)N1CCC[C@H]1C(=O)N[C@@H](CCCNC(=N)N)C(=O)N[C@H](C(=O)N[C@@H](CC(N)=O)C(=O)N[C@H](C(=O)NCC(=O)N[C@@H](CO)C(=O)NCC(=O)N[C@H](C(=O)N1CCC[C@H]1C(N)=O)[C@@H](C)O)[C@@H](C)O)[C@@H](C)O)[C@@H](C)O [sCT] | 86 ± 9% |  |  |  |  |  |
| CSCC[C@H](NC(=O)CNC(=O)[C@H](CO)NC(=O)[C@H](Cc1ccccc1)NC(=O)[C@H](CCCNC(=N)N)NC(=O)[C@H](Cc1c[nH]cn1)NC(=O)[C@H](Cc1ccccc1)NC(=O)[C@H](CC(N)=O)NC(=O)[C@H](CC(N)=O)NC(=O)[C@H](CC(C)C)NC(=O)[C@H](CC(N)=O)NC(=O)[C@H](CCCNC(=N)N)NC(=O)[C@H](Cc1c[nH]c2ccccc12)NC(=O)[C@H](Cc1ccc(O)cc1)NC(=O)[C@H](C)NC(=O)[C@H](CO)NC(=O)[C@H](CC(C)C)NC(=O)[C@@H](NC(=O)[C@@H]1CSSC[C@H](N)C(=O)N[C@@H](CO)C(=O)N[C@@H](CC(N)=O)C(=O)N[C@@H](CC(C)C)C(=O)N[C@@H](CO)C(=O)N[C@@H]([C@@H](C)O)C(=O)N1)C(C)C)C(=O)NCC(=O)N[C@@H](Cc1ccccc1)C(=O)NCC(=O)N1CCC[C@H]1C(=O)N[C@@H](CCC(=O)O)C(=O)N[C@H](C(=O)N1CCC[C@H]1C(N)=O)[C@@H](C)O [pCT] (H-CSNLSTCVLSAYWRNLNNFHRFSGMGFGPETP-NH2; disulfide 1-7) | 73 ± 10% | 6.17 nM | 3.72 nM | 56 ± 7% | 6.31 nM | 14.1 nM |
